The values below come from patent US9956243B2, “Combination treatment for acute myeloid leukemia (AML)” (Hoffmann-La Roche Inc., priority 2013, dated 2018).

The subject of data set [1] is MOLM-13-luc.c4 (AML) human AML cells. The experiment in a line: Antitumor efficacy and survival / increase in life span (ILS) in disseminated MOLM-13.luc.c4 AML model. To be noted: for tumor burden by BLI photon counts: 5 million cells, treatment from day 3, vs Vehicle-treated control mice (FIG. 1); for Median survival: vehicle control 20.5 days. Type of data set: in vivo, SCID beige mice. Here is the method: (§1) Female SCID beige mice (10/group), obtained from Charles River Laboratories (Wilmington, Del.) were used when they were approximately 8-12 weeks old and weighed approximately 20-25 grams. The health of the mice was assessed daily by gross observation and analyses of blood samples taken from sentinel animals housed on shared shelf racks. All animals were allowed to acclimate and recover from any shipping-related stress for a minimum of 72 hours prior to experimental use. Autoclaved water and irradiated food (5058-ms Pico Lab mouse chow, Purina Mills, Richmond, Ind.) were provided ad libitum, and the animals were maintained on a 12 hour light and dark cycle. Cages, bedding and water bottles were autoclaved before use and changed weekly. All animal experiments were conducted in accordance with the Guide for the Care and Use of Laboratory Animals, local regulations, and protocols approved by the Roche Animal Care and Use Committee in an AAALAC accredited facility.
Parental MOLM-13 human AML cells were stably transfected with Luc2 lentiviral particles for 24 hrs in the presence of Polybrene (8 ug/ml) and then selected in the presence of Blasticidin for 3 weeks. Subsequently, one clone was selected by single cell plating in the presence of 0.1 mg/mL G418 and was designated MOLM-13.luc.c4. The lentiviral Luc2 expression plasmid was constructed by incorporating Luc2 gene (Promega) in to pLOC lentiviral plasmid backbone (Thermo Fisher Scientific). Luc2 lentiviral particles were prepared by using Trans-Lentiviral Packaging System (Thermo Fisher Scientific) as recommended.
MOLM-13.luc.c4 was maintained with RPMI 1640 with L-glutamine (2 mM) media (GIBCO/Invitrogen, Carlsbad, Calif.) supplemented with 10% heat-inactivated Fetal Bovine Serum (HI-FBS; GIBCO/Invitrogen, Carlsbad, Calif.), and 1% 100 mM sodium pyruvate. Freshly dissociated MOLM13-Luc.c4 cells (1×106 or 5×106) suspended in Phosphate Buffered Saline (PBS) were then intravenously inoculated via the caudal tail vein into female SCID-beige mice.
It was then filtered thru a 0.22 micron filter into a septum sealed vial for intravenous administration. […] Stock cytarabine (Ara-C injection, 100 mg/ml) was diluted in sterile 0.9% sodium chloride to 44 mg/ml according to manufacturer's instructions and dosed at 200 mg/kg iv twice weekly.
Treatment duration was 3 weeks.
(§2) For increased life span (ILS) assessment, animal body weights were measured two to three times per week, and animals were monitored daily for any clinical signs of toxicity or excessive tumor burden (i.e. hind limb paralysis or morbidity). In addition, progression of disease was monitored by in vivo bioluminescent imaging (BLI) using IVIS® Spectrum system. For each BLI session, mice received 100 mg/kg D-luciferin (Caliper Life Sciences/Perkin-Elmer) via ip injections and were imaged at 20 min post luciferin injection at either a 5 s or a 10 s exposure time. Images were captured by the IVIS® Spectrum system and data were collected and analyzed with Living Image 4.2.0 software (Caliper Life Sciences, Hopkinton, Mass.). Total photon fluxes (ph/s) representing luciferase activity within each fixed region of interest (ROI) covering whole tumors of individual mice were determined. The actual images of mice are not disclosed herein.
Quantification of bioluminescence allowed for direct longitudinal comparison of tumor burden between treatment groups prior to surrogate death end points being reached. Tumor burden was graphically represented as the mean BLI photon flux+standard error of the mean (SEM), and median survival was determined utilizing Kaplan Meier survival analysis. Statistical analysis of comparisons between groups was analyzed by two-way ANOVA, and post-hoc Bonferroni test (GraphPad Prism, version 4.3). Differences between groups were considered to be significant when the probability value (p) was ≤0.05.

For data set [2] the following is noted: Ara-C 200 mg/kg 2x/week iv; 10 mice/group. On the procedure: as §1, with “Cages, bedding and water bottles were autoclaved before use and changed weekly. All animal experiments were conducted in accordance with the Guide for the Care and Use of Laboratory Animals, local regulations, and protocols approved by the Roche Animal Care and Use Committee in an AAALAC accredited facility.” left out
as §2, with “For each BLI session, mice received 100 mg/kg D-luciferin (Caliper Life Sciences/Perkin-Elmer) via ip injections and were imaged at 20 min post luciferin injection at either a 5 s or a 10 s exposure time.” left out, “The actual images of mice are not disclosed herein.” left out

With “4-{[(2R,3S,4R,5S)-3-(3-Chloro-2-fluoro-phenyl)-4-(4-chloro-2-fluoro-phenyl)-4-cyano-5-(2,2-dimethyl-propyl)-pyrrolidine-2-carbonyl]amino}-3-methoxy-benzoic acid 1-mPEG-carbonyloxy-ethyl ester (mPEG, average MW, ˜2200) [compound I-B]”, in data set [1], the “tumor burden by BLI photon counts” value is reported as “significantly reduced photon counts”. Also, the “% ILS vs. Vehicle control” value in data set [1] (Cpd I-B 437 mg/kg q7d iv, p < 0.05 vs vehicle) is reported as 37%; in data set [1] (Cpd I-B 437 mg/kg q7d iv, p < 0.05 vs vehicle, listed as Cpd I-B) it was “*37%”. Besides, the “Median survival” value in data set [1] (Cpd I-B 437 mg/kg q7d iv) turned out to be 28 days.
`Nc1ccn([C@@H]2O[C@H](CO)[C@@H](O)[C@@H]2O)c(=O)n1` [Ara-C, cytarabine]: in data set [1], the “tumor burden by BLI photon counts” value is given as “no difference” and the “monotherapy antitumor activity as assessed by tumor burden (BLI) or ILS” value is “lack of monotherapy activity”. Besides, in data set [1] (Ara-C 200 mg/kg 2x/wk iv), the “% ILS vs. Vehicle control” value was 0% and the “Median survival” value amounted to 20 days. The “monotherapy antitumor activity as assessed by tumor burden (BLI) or ILS” value in data set [1] (listed as Cytarabine (Ara-C)) was “lack of antitumor activity”. The compound further displayed a Mortality in data set [2] of 0.
